Legend:
TxA₂ synthase [1] = target: T1, TxA₂ synthase (Homo sapiens, UniProt P24557); details: statement on the known compound; cited from earlier work
T1 sequence (P24557 1-533): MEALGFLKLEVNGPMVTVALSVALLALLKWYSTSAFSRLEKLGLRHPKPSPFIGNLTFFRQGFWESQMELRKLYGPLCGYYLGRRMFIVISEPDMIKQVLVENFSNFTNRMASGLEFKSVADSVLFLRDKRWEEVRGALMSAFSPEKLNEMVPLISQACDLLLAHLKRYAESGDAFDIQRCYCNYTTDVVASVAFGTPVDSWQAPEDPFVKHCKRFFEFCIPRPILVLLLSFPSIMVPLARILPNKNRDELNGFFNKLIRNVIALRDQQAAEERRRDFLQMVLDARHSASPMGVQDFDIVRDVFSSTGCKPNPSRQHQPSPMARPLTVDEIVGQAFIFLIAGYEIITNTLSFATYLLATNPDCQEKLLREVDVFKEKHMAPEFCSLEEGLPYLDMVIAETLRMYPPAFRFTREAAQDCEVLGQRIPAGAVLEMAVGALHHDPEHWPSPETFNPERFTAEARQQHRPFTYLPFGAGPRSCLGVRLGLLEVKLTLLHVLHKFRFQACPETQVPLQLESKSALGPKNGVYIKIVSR

TxA₂ Synthase [2] = target: T2, TxA₂ Synthase (Rattus norvegicus, UniProt P49430); assay: In vitro effects on TxB₂ production in rat whole blood during clotting (RIA); format: cell-based; details: result in words
T2 construct: Blood was withdrawn from the abdominal aorta of the animals under light ether anesthesia; from tissue; host or cells: rat whole blood (clotting; platelets)
T2 sequence (P49430 1-533): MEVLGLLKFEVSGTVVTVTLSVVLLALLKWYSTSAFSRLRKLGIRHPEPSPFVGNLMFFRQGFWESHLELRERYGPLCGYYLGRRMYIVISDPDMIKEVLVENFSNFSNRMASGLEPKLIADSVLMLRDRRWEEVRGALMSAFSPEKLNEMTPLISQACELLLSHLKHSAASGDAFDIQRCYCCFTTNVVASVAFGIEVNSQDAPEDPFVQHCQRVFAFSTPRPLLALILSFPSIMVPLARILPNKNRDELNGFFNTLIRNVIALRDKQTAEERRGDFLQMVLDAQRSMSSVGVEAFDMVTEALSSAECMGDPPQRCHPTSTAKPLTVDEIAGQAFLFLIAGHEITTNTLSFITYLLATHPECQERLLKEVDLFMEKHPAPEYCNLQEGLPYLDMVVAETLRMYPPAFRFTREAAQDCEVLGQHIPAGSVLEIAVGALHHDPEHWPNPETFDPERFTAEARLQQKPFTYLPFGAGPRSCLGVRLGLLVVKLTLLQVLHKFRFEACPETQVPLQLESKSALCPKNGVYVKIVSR
Description: The compounds of formula (I) were for example tested for their ability to inhibit TxA₂ Synthase activity (as reflected by TxB₂ generated in whole blood during clotting or in isolated glomeruli) in vitro in the rat.
The in vitro experiments were carried out as follows: The effect of the compounds on TxA₂ synthesis was evaluated in serum.
Blood was withdrawn from the abdominal aorta of the animals under light ether anesthesia.
Samples were then allowed to clot for 1 h at 37°C, centrifuged at 3000 rpm for 10 min, serum collected and stored at -20°C until assayed. TxB₂ levels were determined by RIA according to previously described procedures [Patrono et al. - Thromb.

inhibitory activity on TxA₂ synthesis (TxA₂ Synthase [2])	Compound	TxA₂ synthase inhibitory activity (TxA₂ synthase [1])
	O=C(O)COc1ccc(CCNS(=O)(=O)c2ccccc2)cc1 [BM 13177, Sulotroban]	devoid of TxA₂ synthase inhibitory activity
marked inhibitory activity	O=C(O)CCCCO/N=C(\C1CCCCC1)C(Cc1cnccn1)n1ccnc1 (racemic) [FCE 27751, (±)-(E)-5-[2-pyrazinylmethyl-2-(imidazol-1-yl)-1-cyclohexylethylidene]aminoxypentanoic acid]	

Source: patent EP0611765A1, “2-(Imidazol-1-yl)-3-heteroarylpropylidene-aminoxyalkanoic acid derivatives” (PHARMACIA S.p.A., priority 1993, dated 1994)
